According to patent US10472352B2, “Rac inhibitors” (Geneyus LLC, priority 2017, dated 2019):

Columns and labels:
[1] = tested on: MCF-7 human breast cancer cell line; assay: Cell Viability Assay (MCF7), PrestoBlue; assay type: cell-based; settings: MCF7, 72 h, MCF-7 cells, three days after drug treatment
Protocol: In order to determine a compound's effect on cell viability, PrestoBlue assays were performed as previously described by Kuhn et al. (2013) with modifications. MCF-7 human breast cancer and IGR-1 human melanoma cell lines were seeded into 96-well plates 24 hours prior to addition of drug. Cells were treated with 0 to 200 μM (11 concentrations) of compound solubilized in DMSO, adjusting the final concentration of DMSO to 1% in the well. Three days after drug treatment, cell viability was measured by adding PrestoBlue (Life Technologies Ltd.; cat. No. A13262) reagent directly to wells containing media/drug to reach a final concentration of 10%. PrestoBlue is a modified molecule of the common Alamar Blue probe used to determine viability based on the ability of a cell to metabolize a nonfluorescent compound (resazurin) to a florescent molecule (resorufin). Following a 1 hour incubation period, total well fluorescence was measured using the microplate reader M1000 pro (Tecan) with excitation 560-5 nm and emission 590-5 nm. […] The percentage of living cells was then computed by comparison with control wells. Kuhn, Jonas et al., Assay and Drug Development Technologies, March 2013, Label-Free Cytotoxicity Screening Assay by Digital Holographic Microscopy.

Rac1 protein = target: T1, Rac1 protein (Homo sapiens, UniProt P63000); assay: Fluorescence Polarization Assay (Rac1 FP); assay type: binding; settings: 125 nM his-tagged Rac1, 12.5 nM Bodipy-TR GTPγS, 30 minutes at 37° C.
T1 construct: purchased Cytoskeleton Inc. RC01
Protocol: Direct binding of Rac1 compound inhibitors to Rac1 protein was performed using fluorescence polarization (FP). Briefly, Rac1 inhibitors were initially dissolved in DMSO and then serial drug dilutions in exchange buffer (20 mM Tris pH 7.5, 50 mM NaCl, 1 mM MgCl, 1 mM EDTA) were prepared in a flat black 96-well half-area plate (Greiner). Recombinant his-tagged Rac1 protein (Cytoskeleton Inc. Cat. # RC01) was added to the inhibitors at a final concentration of 125 nM along with 12.5 nM Bodipy-TR GTPγS (Life Technologies Inc. Cat. # G35780) in exchange buffer and incubated for 30 minutes at 37° C. in exchange buffer. After 30 minutes of incubation. FP was measured on the M1000 Pro (Tecan) fluorescent plate reader with 590 nm±5 nm excitation and 625 nm±5 nm emission spectra settings.

[2] = target: His-Rac1 / GST-PBD (PAK Binding Domain) (Homo sapiens, UniProt P63000); assay: Rac Activation AlphaScreen Assay (Rac1 AS); assay type: biochemical; settings: 500 nM GTPγS, 37° C., 1 hour; 'positive' = signal generated was higher than the positive control
Protocol: AlphaScreen® assays were performed in 96-well microplates in a final reaction volume of 60 μl. Recombinant His-Rac1, recombinant GST-PBD (PAK Binding Domain), donor and acceptor beads (PerkinElmer), and inhibitors were incubated in exchange buffer (20 mM Tris pH 7.5, 50 mM NaCl, 1 mM MgCl2, 1 mM EDTA, 500 nM GTPγS (guanosine 5′-[γ-thio]triphosphate)) at 37° C. Readings were performed on a Tecan M1000 pro microplate reader after 1 hour.

[3] = tested on: BT474 breast cancer cells; assay: BT474 Four (4) Day Cell Viability Assay; assay type: cell-based; settings: BT474, 4 days, 32661 0 μM, fulvestrant 0.0 nM
Protocol: BT474 breast cancer cells that are Estrogen Receptor Positive and HER2+ were grown in 5% cFBS. 5,000 cells were seeded into each well of a 96-well plate and treated with escalating doses of lapatinib, fulvestrant, and 32661.

Row | Structure (SMILES) | IC50 [1] | IC50 (Rac1 protein) | IC50 [2] | other results
1 | FC(F)(F)c1ccc2c(SCCCCCOc3ccc(CN4CCOCC4)nc3)ccnc2c1 [Compound 0031778, 4-[(5-{[6-(morpholin-4-ylmethyl)pyridin-3-yl]oxy}pentyl)sulfanyl]-7-(trifluoromethyl)quinoline] | 4.86 µM | 1.24 µM |  | Rac1 AS IC50(uM) [2]: positive
2 | FC(F)(F)c1ccc2c(SCCCCCCCn3cc(CN4CCOCC4)nn3)ccnc2c1 [Compound 0032371, 4-({7-[4-(morpholin-4-ylmethyl)-1H-1,2,3-triazol-1-yl]heptyl}sulfanyl)-7-(trifluoromethyl) quinoline] | 11.3 µM | 3.73 µM | 62 µM | 
3 | COCCN(Cc1cn(CCCCCCSc2ccnc3cc(C(F)(F)F)ccc23)nn1)C(=O)OC(C)(C)C [Compound 0032621, tert-butyl N-(2-methoxyethyl)-N-{[1-(6-{[7-(trifluoromethyl)quinolin-4-yl]sulfanyl}hexyl)-1H-1,2,3-triazol-4-yl]methyl}carbamate] | 9.34 µM | 1.48 µM |  | Rac1 AS IC50(uM) [2]: positive
4 | FC(F)(F)c1ccc2c(SCCCCCCn3cncc3CN3CCOCC3)ccnc2c1 [Compound 0032662, 4-({6-[5-(morpholin-4-ylmethyl)-1H-imidazol-1-yl]hexyl}sulfanyl)-7-(trifluoromethyl) quinoline] | 19.1 µM | 2.33 µM | 16.6 µM | 
5 | FC(F)(F)c1ccc2c(SCc3cccc(Cn4cc(CN5CCOCC5)nn4)c3)ccnc2c1 [Compound 0032731, 4-[{(3-{[4-(morpholin-4-ylmethyl)-1H-1,2,3-triazol-1-yl]methyl}phenyl)methyl]sulfanyl)-7-(trifluoromethyl) quinoline] | 9.1 µM | 5.16 µM | 24.1 µM | 
6 | Fc1ccc2c(SCCCCCCn3cc(CN4CCOCC4)nn3)ccnc2c1 [Compound 0032833, 7-fluoro-4-{(6-[4-(morpholin-4-ylmethyl)-1H-1,2,3-triazol-1-yl]hexyl}sulfanyl) quinoline] | 7.8 µM | 4.32 µM |  | Rac1 AS IC50(uM) [2]: positive
7 | Cc1ccc(NCc2cn(CCCCCCSc3ccnc4cc(C(F)(F)F)ccc34)cn2)cc1 [Compound 0032880, 4-methyl-N-{[1-(6-{[7-(trifluoromethyl)quinolin-4-yl]sulfanyl)hexyl}-1H-imidazol-4-yl]methyl)aniline] | 6.3 µM | 1 µM | 3.2 µM | 
8 | COc1ccc(NCc2cn(CCCCCCSc3ccnc4cc(C(F)(F)F)ccc34)cn2)cc1 [Compound 0032881, 4-methoxy-N-{[1-(6-{[7-(trifluoromethyl)quinolin-4-yl]sulfanyl}hexyl)-1H-imidazol-4-yl]methyl}aniline] | 6.8 µM | 0.249 µM | 6 µM | 
9 | FC(F)(F)c1ccc2c(SCCCCCCn3cnc(CNc4ccccc4)c3)ccnc2c1 [Compound 0032886, N-{[1-(6-{[7-(trifluoromethyl)quinolin-4-yl]sulfanyl)hexyl}-1H-imidazol-4-yl]methyl} aniline] | 7.8 µM | 2.04 µM | 4.4 µM | 
10 | CN(Cc1cn(CCCCCCSc2ccnc3cc(C(F)(F)F)ccc23)cn1)c1ccccc1 [Compound 0032887, N-methyl-N-{[1-(6-{[7-(trifluoromethyl)quinolin-4-yl]sulfanyl)hexyl}-1H-imidazol-4-yl]methyl}aniline] | 11.8 µM | 1.18 µM | 4.7 µM | 
11 | O=C(NCc1cn(CCCCCCSc2ccnc3cc(C(F)(F)F)ccc23)nn1)C1CCCCC1 [Compound 0032896, N-{[1-(6-{[7-(trifluoromethyl)quinolin-4-yl]sulfanyl}hexyl)-1H-1,2,3-triazol-4-yl]methyl} cyclohexane-carboxamide] | 13.8 µM | 4.76 µM |  | Rac1 AS IC50(uM) [2]: positive
12 | FC(F)(F)c1ccc2c(SCCCCCCn3ccc(CN4CCOCC4)n3)ccnc2c1 [Compound 0032897, 4-({6-[3-(morpholin-4-ylmethyl)-1H-pyrazol-1-yl]hexyl}sulfanyl)-7-(trifluoromethyl) quinoline] | 11.6 µM | 2.79 µM | 35 µM | 
13 | COc1ccc(N2CCN(Cc3cn(CCCCCCSc4ccnc5cc(C(F)(F)F)ccc45)nn3)CC2)cc1 [Compound 0032956, 4-{[6-(4-{[4-(4-methoxyphenyl)piperazin-1-yl]methyl}-1H-1,2,3-triazol-1-yl)hexyl]sulfanyl}-7-(trifluoromethyl) quinoline] | 10.7 µM | 1.41 µM | 8.2 µM | 
14 | Fc1ccc2c(SCCCCCCn3cnc(CNc4ccccc4)c3)ccnc2c1 [Compound 0033042, N-{(1-(6-[(7-fluoroquinolin-4-yl)sulfanyl]hexyl}-1H-imidazol-4-yl}methyl] aniline] | 9 µM | 2.35 µM | 7.2 µM | 
15 | OC(c1ccccc1)c1cn(CCCCCCSc2ccnc3cc(C(F)(F)F)ccc23)cn1 (stereo not shown) [Compound 0033043, phenyl[1-(6-{[7-(trifluoromethyl)quinolin-4-yl]sulfanyl}hexyl)-1H-imidazol-4-yl]methanol] | 7.8 µM | 100 µM | 9.6 µM | 
16 | FC(F)(F)c1ccc2c(SCCCCCCNc3ccc(N4CCNCC4)cc3)ccnc2c1 [Compound 0033102, 4-(piperazin-1-yl)-N-(6-{[7-(trifluoromethyl)quinolin-4-yl]sulfanyl}hexyl)aniline] | 3.8 µM | 9.66 µM | 0.383 µM | 
17 | FC(F)(F)c1ccc2c(SCCCCCCNc3ccc(N4CCOCC4)cc3)ccnc2c1 [Compound 0033200, 4-(morpholin-4-yl)-N-(6-{[7-(trifluoromethyl)quinolin-4-yl]sulfanyl}hexyl)aniline] | 10.8 µM | 0.71 µM | 2.3 µM | 
18 | FC(F)(F)c1ccc2c(SCCCCCCNc3cccc(N4CCNCC4)c3)ccnc2c1 [Compound 0033235, 3-piperazin-1-yl-N-[6-[[7-(trifluoromethyl)-4-quinolyl]sulfanyl]hexyl]aniline] | 3.6 µM | 4.81 µM | 1.1 µM | 
19 | FC(F)(F)c1ccc2c(SCCCCCNc3ccc(N4CCNCC4)cc3)ccnc2c1 [Compound 0033240, 4-(piperazin-1-yl)-N-(5-{[7-(trifluoromethyl)quinolin-4-yl]sulfanyl}pentyl)aniline] | 3.8 µM | 9.67 µM | 0.98 µM | 
20 | NC1CCN(c2ccc(NCCCCCCSc3ccnc4cc(C(F)(F)F)ccc34)cc2)CC1 [Compound 0033278, 1-{4-[(6-{[7-(trifluoromethyl)quinolin-4-yl]sulfanyl}hexyl)amino]phenyl} piperidin-4-amine] | 7.6 µM | 2.32 µM | 1.1 µM | 
21 | O=C1CNCCN1c1ccc(NCCCCCCSc2ccnc3cc(C(F)(F)F)ccc23)cc1 [Compound 0033283, 1-{4-[(6-{[7-(trifluoromethyl)quinolin-4-yl]sulfanyl)hexyl}amino]phenyl} piperazin-2-one] | 5.6 µM | 3.07 µM | 6.3 µM | 
22 | CS(=O)(=O)CCNCc1ccc(-c2ccc3ncnc(Nc4ccc(OCc5cccc(F)c5)c(Cl)c4)c3c2)o1 [Lapatinib, lapatinib, reference compound] |  |  |  | cellular viability ([3]; lapatinib 6.9 nM): 99%; cellular viability ([3]; lapatinib 20.6 nM): 96%; cellular viability ([3]; lapatinib 61.7 nM): 80%; cellular viability ([3]; lapatinib 185.2 nM): 75%; cellular viability ([3]; lapatinib 555.6 nM): 77%; cellular viability ([3]; lapatinib 1666.7 nM): 68%; cellular viability ([3]; lapatinib 3333.0 nM): 60%
